Reference: patent US10968193B2, “Antidiabetic bicyclic compounds” (Merck Sharp & Dohme Corp., priority 2014, dated 2021)
pEC50: −log10 of the molar value.

These compounds were tested against T1, human GPR40 (Homo sapiens, UniProt O14842) (assay: Inositol Phosphate Turnover (IP1) Assay 3). Conditions: HEK cells stably expressing human GPR40.
T1 construct: expressed in transfected cells; host or cells: HEK cells stably expressing the aequorin reporter
Assay type: cell-based
Procedure: Human and mouse GPR40 stable cell-lines were generated in CHO cells stably expressing NFAT BLA (Beta-lactamase). A human GPR40 stable cell-line was generated in HEK cells stably expressing the aequorin expressing reporter. The expression plasmids were transfected using lipofectamine (Life Technologies) following manufacturer's instructions. Stable cell-lines were generated following drug selection.
Inositol Phosphate Turnover (IP1) Assay 3:
The assay was performed in 384-well format. HEK cells stably expressing human GPR40 were plated at 7500 cells per well in growth medium (DMEM/10% fetal calf serum). Cell plates were then incubated 16 hours at 37 degrees in a 5% CO2 incubator.
Measurement of Inositol Phosphate Turnover (IP) was performed using the CisBio IP-One kit (Part number 62IPAPEB). After the 16 hour incubation, the growth media was removed by centrifugation using the BlueWasher (AusWasher GUI Ver. v1.0.1.8) Protocol #21—“Light Dry” and 10 ul of stimulation buffer (prepared as described in the kit) was added to each well. In a separate plate, compounds were diluted in DMSO (200-fold over the final concentration in the assay well) and 50 nl was acoustically transferred to the appropriate well in the assay cell plate. The plates were then incubated for 60 minutes at 37 degrees in a 5% CO2 incubator. 10 ul of detection buffer (also prepared as described in the IP-One kit) was added to each well and the plates were incubated at rt for 60 minutes in the dark. The plates were then read in a Perkin Elmer EnVision or equivalent reader able to measure FRET. Fluorescent ratio of emission at 665 and 620 nm was then converted to IP1 concentration by back calculating from an IP1 standard curve prepared at the time of the assay. Data is normalized to % activity using a reference compound and EC50s determined using a standard 4-parameter fit.

T1 sequence (O14842 whole entry): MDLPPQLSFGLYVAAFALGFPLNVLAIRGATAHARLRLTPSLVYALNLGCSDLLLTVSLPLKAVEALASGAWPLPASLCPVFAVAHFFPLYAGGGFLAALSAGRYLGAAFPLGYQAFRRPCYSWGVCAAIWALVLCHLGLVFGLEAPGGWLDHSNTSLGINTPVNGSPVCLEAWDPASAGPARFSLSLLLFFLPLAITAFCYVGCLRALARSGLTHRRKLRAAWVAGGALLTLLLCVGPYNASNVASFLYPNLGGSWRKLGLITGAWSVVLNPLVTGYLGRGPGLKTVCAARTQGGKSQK

Going from `COc1cc(-c2ccc(C3CCc4ccc([C@H](C5CC5)[C@H](C)C(=O)O)cc4O3)cc2CN2CCC(C(N)=O)CC2)c(F)cn1` (stereo partly shown) [Example 272] to `COc1cc(-c2ccc(C3CCc4ccc([C@H](C5CCC5)[C@H](C)C(=O)O)cc4O3)cc2CN2CCCCC2)c(F)cn1` (single isomer, unassigned) [Example 105], the pEC50 rises from 6.56 to 10.00 (3.44 log units). The second is the more potent here.

Compared with `CCOc1cc(-c2ccc(C3CCc4ccc([C@H](C5CC5)[C@H](C)C(=O)O)cc4O3)c(CN(C)C(C)(C)C)c2)c(F)cn1` (single isomer, unassigned) [Example 132b], `COc1cc(-c2ccc(C3CCc4ccc([C@H](C5CC5)[C@H](C)C(=O)O)cc4O3)c(CN(C)C(C)(C)C)c2)ccn1` (mixture of isomers) [Example 114] is 1.33 log units higher in pEC50: 6.97 for the first, 8.30 for the second. The second is the more potent here.

Compared with `COc1cc(-c2ccc(C3CCc4ccc([C@H](C5CC5)[C@H](C)C(=O)O)cc4O3)cc2CN2[C@H](C)CCC[C@H]2C)ccn1` (stereo partly shown) [Example 240], `COc1cc(-c2ccc(C3CCc4ccc([C@H](C5CC5)[C@H](C)C(=O)O)cc4O3)cc2CN2CCC[C@@H]2C)ccn1` (stereo partly shown) [Example 279] is 1.33 log units lower in pEC50: 8.85 for the first, 7.52 for the second.

Compared with `COc1cc(-c2ccc(C3CCc4ccc([C@H](C5CC5)[C@H](C)C(=O)O)cc4O3)cc2CN2CCC3(CC2)CC3)c(F)cn1` (stereo partly shown) [Example 261], `COc1cc(-c2ccc(C3CCc4ccc([C@H](C5CC5)[C@H](C)C(=O)O)cc4O3)cc2CN2CCCC23CCC3)c(F)cn1` (stereo partly shown) [Example 264] is 0.48 log units higher in pEC50: 9.22 for the first, 9.70 for the second.

`COc1cc(-c2ccc(C3CCc4ccc([C@H](C5CCC5)[C@H](C)C(=O)O)cc4O3)cc2CN2CCCCC23CC3)c(F)cn1` (single isomer, unassigned) [Example 106] and `COc1cc(-c2ccc(C3CCc4ccc([C@H](C5CC5)[C@H](C)C(=O)O)cc4O3)cc2CN2CCCC23COC3)c(F)cn1` (stereo partly shown) [Example 265] are the same in pEC50: 9.70 for the first, 9.70 for the second.

Compared with `CCN(CC)Cc1cc(C2CCc3ccc([C@H](C4CCC4)[C@H](C)C(=O)O)cc3O2)ccc1-c1cc(OC)ncc1F` (single isomer, unassigned) [Example 98], `COc1cc(-c2ccc(C3CCc4ccc([C@H](C5CC5)[C@H](C)C(=O)O)cc4O3)cc2CN(C)C(C)C)c(F)cn1` (stereo partly shown) [Example 254] is 1.05 log units lower in pEC50: 10.05 for the first, 9.00 for the second.

First: COc1cc(-c2ccc(C3CCc4ccc([C@H](C5CC5)[C@H](C)C(=O)O)c(F)c4O3)cc2CN2CCCCC23CC3)c(F)cn1 (single isomer, unassigned) [Example 203]
Second: COc1cc(-c2ccc(C3CCc4ccc([C@H](C5CC5)[C@H](C)C(=O)O)c(F)c4O3)cc2CN2CCCCC2)c(F)cn1 (single isomer, unassigned) [Example 200]
The pEC50 of the first is 0.98 log units higher: 9.80 for the first, 8.82 for the second.

Going from `CCN(CC)Cc1nc(C2CCc3ccc([C@H](C4CC4)[C@H](C)C(=O)O)cc3O2)ccc1-c1cc(OC)ncc1F` (single isomer, unassigned) [Example 88] to `CCN(CC)Cc1cc(C2CCc3ccc([C@H](C4CC4)[C@H](C)C(=O)O)cc3O2)c(F)cc1-c1ccnc(OC)c1` (single isomer, unassigned) [Example 182], the pEC50 falls from 8.17 to 7.80 (0.37 log units). The first is the more potent here.

Going from `COc1cc(-c2ccc(C3CCc4ccc([C@H](C5CC5)[C@H](C)C(=O)O)cc4O3)cc2CN2C(C)(C)CCCC2(C)C)c(F)cn1` (stereo partly shown) [Example 230] to `COc1cc(-c2ccc(C3CCc4ccc([C@H](C5CC5)[C@H](C)C(=O)O)cc4O3)cc2CN2[C@H](C)CCC[C@@H]2C)c(F)cn1` (stereo partly shown) [Example 259], the pEC50 falls from 10.05 to 9.70 (0.35 log units).

`CCN(CC)Cc1cc(C2CCc3ccc([C@H](C4CC4)[C@H](C)C(=O)O)c(F)c3O2)ccc1-c1cc(OC)ncc1F` (single isomer, unassigned) [Example 205] and `COc1cc(-c2ccc(C3CCc4ccc([C@H](C5CC5)[C@H](C)C(=O)O)c(F)c4O3)cc2CN2CCC[C@H]2C)c(F)cn1` (single isomer, unassigned) [Example 211] are within 0.2 log units of each other in pEC50: 8.62 for the first, 8.68 for the second.

Going from `CCN(CC)C(C)c1cc(C2CCc3ccc([C@H](C4CC4)[C@H](C)C(=O)O)cc3O2)ccc1-c1cc(OC)ncc1F` (single isomer, unassigned) [Example 244] to `COc1cc(-c2ccc([C@H]3CCc4ccc([C@H](C5CC5)[C@H](C)C(=O)O)cc4O3)cc2CN(C(C)C)C(C)C)c(F)cn1` [Example 170], the pEC50 rises from 9.37 to 10.15 (0.78 log units). The second is the more potent here.

Compared with `COc1cc(-c2ccc(C3CCc4ccc([C@H](C5CC5)[C@H](C)C(=O)O)cc4O3)c(CN3CCCCC3(C)C)c2)c(F)cn1` (single isomer, unassigned) [Example 128b], `COc1cc(-c2ccc(C3CCc4ccc([C@H](C5CC5)[C@H](C)C(=O)O)cc4O3)c(CN3CCCC3)c2)c(F)cn1` (single isomer, unassigned) [Example 123a] is 1.88 log units lower in pEC50: 8.92 for the first, 7.04 for the second. The first is the more potent here.

Compared with `COc1cc(-c2ccc(C3CCc4ccc([C@H](C5CC5)[C@H](C)C(=O)O)c(F)c4O3)cc2CN2CCC[C@H]2C)c(F)cn1` (single isomer, unassigned) [Example 210], `COc1cc(-c2ccc(C3CCc4ccc([C@H](C5CCC5)[C@H](C)C(=O)O)cc4O3)cc2CN2CCCC2C)c(F)cn1` (stereo partly shown) [Example 103] is 1.54 log units higher in pEC50: 8.51 for the first, 10.05 for the second.

`COc1cc(-c2ccc(C3CCc4ccc([C@H](C5CC5)[C@H](C)C(=O)O)cc4O3)c(CN3CCCC[C@H]3C)c2)ccn1` (mixture of isomers) [Example 120] and `COc1cc(-c2ccc(C3CCc4ccc([C@H](C5CC5)[C@H](C)C(=O)O)cc4O3)c(CN3CCC[C@@H]3C)c2)ccn1` (single isomer, unassigned) [Example 118a] are within 0.2 log units of each other in pEC50: 9.15 for the first, 9.22 for the second.

First: CCN(C)Cc1cc(C2CCc3ccc([C@H](C4CC4)[C@H](C)C(=O)O)cc3O2)ccc1-c1cc(OC)ncc1C#N (single isomer, unassigned) [Example 196]
Second: COc1cc(-c2ccc(C3CCc4ccc([C@H](C5CC5)[C@H](C)C(=O)O)cc4O3)cc2CN(C(C)C)C(C)(C)C)c(F)cn1 (stereo partly shown) [Example 229]
The pEC50 of the first is 2.01 log units lower: 8.14 for the first, 10.15 for the second. The second is the more potent here.

First: COc1cc(-c2ccc(C3CCc4ccc([C@H](C5CC5)[C@H](C)C(=O)O)cc4O3)c(CN3CCCCC34CC4)c2)ccn1 (single isomer, unassigned) [Example 223]
Second: COc1cc(-c2ccc(C3CCc4ccc([C@H](C5CC5)[C@H](C)C(=O)O)cc4O3)cc2CN2CCCCC23CC3)ccn1 (single isomer, unassigned) [Example 222]
The pEC50 of the first is 1.41 log units higher: 10.30 for the first, 8.89 for the second.

First: COc1ccc(F)c(-c2ccc(C3CCc4ccc([C@H](C5CC5)[C@H](C)C(=O)O)cc4O3)cc2CN2CCCCC23CC3)n1 (stereo partly shown) [compound 190]
Second: COc1cc(-c2cc(F)c(C3CCc4ccc([C@H](C5CC5)[C@H](C)C(=O)O)cc4O3)cc2CN2CCCCC23CC3)ccn1 (single isomer, unassigned) [Example 188]
The pEC50 of the first is 0.74 log units lower: 8.41 for the first, 9.15 for the second.

Compared with `COc1cc(-c2ccc(C3CCc4ccc([C@H](C5CC5)[C@H](C)C(=O)O)cc4O3)cc2CN2CCC(C)(C)C2)ccn1` (stereo partly shown) [Example 282], `COc1cc(-c2ccc(C3CCc4ccc([C@H](C5CC5)[C@H](C)C(=O)O)cc4O3)c(CN3CCCC3(C)C)c2)ccn1` (single isomer, unassigned) [Example 111b] is 1.27 log units higher in pEC50: 8.13 for the first, 9.40 for the second. The second is the more potent here.

First: COc1cc(-c2ccc(C3CCc4ccc([C@H](C5CC5)[C@H](C)C(=O)O)cc4O3)c(CN3CCCC[C@H]3C)c2)c(F)cn1 (single isomer, unassigned) [Example 130a]
Second: CCOc1cc(-c2ccc(C3CCc4ccc([C@H](C5CC5)[C@H](C)C(=O)O)cc4O3)c(CN3CCC[C@@H]3C)c2)c(F)cn1 (single isomer, unassigned) [Example 133]
The pEC50 of the first is 1.04 log units lower: 8.06 for the first, 9.10 for the second. The second is the more potent here.

`C[C@H](C(=O)O)[C@H](c1ccc2c(c1)OC(c1ccc(-c3cc(O)ncc3F)c(CN(C)C3CCOC3)c1)CC2)C1CC1` (stereo partly shown) [Example 268a] and `COc1cc(-c2ccc(C3CCc4ccc([C@H](C5CC5)[C@H](C)C(=O)O)cc4O3)cc2CN2CCC3CC32)c(F)cn1` (single isomer, unassigned) [Example 256b] are within 0.2 log units of each other in pEC50: 9.22 for the first, 9.05 for the second.

Going from `COc1cc(-c2ccc(C3CCc4ccc([C@H](C5CC5)[C@H](C)C(=O)O)cc4O3)c(CN3[C@H](C)CC[C@H]3C)c2)ccn1` (single isomer, unassigned) [Example 116a] to `COc1cc(-c2ccc(C3CCc4ccc([C@H](C5CC5)[C@H](C)C(=O)O)cc4O3)cc2CN2[C@@H](C)CCC[C@@H]2C)c(F)cn1` (stereo partly shown) [Example 231], the pEC50 rises from 8.77 to 9.80 (1.03 log units).

First: COc1cc(-c2ccc([C@H]3CCc4ccc([C@H](C5CC5)[C@H](C)C(=O)O)cc4O3)cc2CN2C[C@H]3C[C@H]3C2)c(F)cn1 [Example 138]
Second: COc1cc(-c2ccc(C3CCc4ccc([C@H](C5CC5)[C@H](C)C(=O)O)cc4O3)c(CN(C(C)C)C(C)C)c2)c(F)cn1 (single isomer, unassigned) [Example 126a]
The pEC50 of the first is 0.78 log units lower: 9.52 for the first, 10.30 for the second. The second is the more potent here.

`COc1cc(-c2ccc(C3CCc4ccc([C@H](C5CC5)[C@H](C)C(=O)O)cc4O3)c(CN3[C@H](C)CC[C@H]3C)c2)ccn1` (stereo partly shown) [Example 116] and `C[C@H](C(=O)O)[C@H](c1ccc2c(c1)OC(c1ccc(-c3cc(O)ncc3C#N)c(CN3CCCCC34CC4)c1)CC2)C1CC1` (stereo partly shown) [Example 295] are within 0.2 log units of each other in pEC50: 6.98 for the first, 7.07 for the second.
